Data: patent US20120039808A1, “Brain Tumor Stem Cell Differentiation Promoter, and Therapeutic Agent for Brain Tumor” (The University of Tokyo, priority 2009, published 2012)
“Also recorded” adds a separate entry of the source. Blank lines part the entries; values can stand above or below the molecule they belong to.

Experiments:
[1] = system: glioma-initiating cells (TGS-01, TGS-04); experiment: Sphere formation assay; type: cell-based, human
Procedure: GICs were cultivated for seven days using a non-tissue-culture-treated-flask with vent cap (BD Bioscience). The floating spheres were counted for each sample within five fields of vision under a microscope.
To clarify the role of TGF-β signals in glioma-initiating cells, first the effects due to TGF-β signal inhibition were examined. A sphere formation ability assay was implemented in the presence of either TGF-β or a TGF-β inhibitor (SB431542, 1 μM).
SB431542 can inhibit not only the TGF-β type I receptor (ALK5), but also activin/nodal type I receptor signals, so to identify the role of TGF-β signals, the effects of a TGF-β receptor II/Fc chimera on glioma-initiating cells were examined. The glioma-initiating cells were separated into single cells, and a sphere assay implemented in the presence of either human TGF-βRII/Fc chimera (1 μg/mL), or IgG1Fc (1 μg/mL) as a control.

[2] = system: Sox2 mRNA; experiment: Sox2 mRNA expression by quantitative real-time PCR; type: cell-based, human
Procedure: (§1) Quantitative real-time PCR was implemented according to the method by Ikushima et al. (EMBO J. 2008, 27: 2955-2965). All samples were implemented in triplicate. The data was normalized using glyceraldehyde 3-phosphate dehydrogenase (GAPDH).
In addition, siRNA (siSMAD2 and siSMAD3) were transfected to SMAD2 and SMAD3 in TGS-01 cells, and incubated for 24 hours, and then processed for TGF-β (100 μM), and the expression levels measured. […] (See FIG. 4B).
The induction of Sox2 expression by TGF-β was observed 24 hours after stimulation, but not observed after three hours. (See FIG. 4A.) Further, the effects of TGF-β on Sox2 expression in the presence of cycloheximide, which is a protein synthesis inhibitor, were examined. TGF-β (100 μM) processing was implemented for 24 hours, and after processing the TGF-β for 30 minutes, the cycloheximide processing was started, and the Sox2 expression levels were measured. In the presence of cycloheximide, which is a protein synthesis inhibitor, the induction of Sox2 expression was reduced. From these facts, it is thought that Sox2 expression is not induced directly by TGF-β, but rather, that it is controlled by other factors that are induced by TGF-β.

[3] = system: CD133-positive cells in glioma spheres; experiment: Flow cytometry of CD133-positive cells; type: cell-based, human
Procedure: The cells were separated into single cells, and marked using phycoerythrin marker CD133 antibodies. The expression levels were measured using EXPO32 ADC software through a Beckman C EPICS XL flow cytometer.
(§2) Next, the effects of TGF-β (100 μM) or SB431542 (1 μM) were examined using flow cytometry. In the presence of TGF-β inhibitors, the percentage of CD133-positive cells in the glioma spheres was reduced. (See FIG. 3A.) Further, to examine the expression of neural precursor cell markers or neural cell differentiation markers in the glioma spheres, the spheres (TGS-01) were separated into single serum-free culture, and seeded on glass slides that had been coded using poly-L-ornithine (Sigma) and fibronectin (Sigma), and were then cultured for seven days together with TGF-β (100 μM) or the inhibitor SB431542 (1 μM). The cells were fixed using 3.7% paraformaldehyde, and the cell membrane was made permeable using 0.3% Triton […] including PBS, and incubated together with antibodies before immunostaining was implemented.

[4] = system: TGS-01 cells transplanted intracranially; experiment: Intracranial proliferation assay; type: in vivo, BALB/c nu/nu mice
Procedure: Glioma-initiating cells (living cells […] in 5 μL of DMEM/F12 culture) were injected stereotaxically at a depth of 3 mm into the right cerebral hemisphere of five-week-old female BALB/c nu/nu mice. All animal testing was implemented according to the policies of the University of Tokyo animal testing committee.
Specifically, adenovirus-Sox4 or adenovirus-LacZ staining was implemented, and 5×10^4 TGS-01 cells either unprocessed or after 24 hours processing using a TGF-β inhibitor were transplanted intracranially. TGF-β is well-known to promote glioma cell proliferation, so to classify the results into effects on growth and effects in differentiation, SB431542 processing was implemented as pre-processing and not implemented continuously. Six mice were used for each condition, and evaluated using Kaplan-Meier analysis. The p values were determined using the long-rank test. […] Further, the results of histological analysis of the samples dissected 30 days after intracranial transplant are shown in FIG. 11 (Right). Tissue sections were stained using hematoxylin and eosin (HE).

[5] = system: Sox2 protein; experiment: Sox2 protein level by immunoblotting; type: cell-based, human; settings: 24-hour processing; TGF-β 100 μM or SB431542 1 μM
Procedure: The cells were dissolved in a buffer including 1% Nonidet P-40, 20 mM Tris-hydrochloride (pH7.4), 150 mM sodium chloride, 1 mM PMSF, 1% aprotinin, and 5 mM EDTA. The proteins refined from the cytolized product was supplied to SDS-PAGE, and transferred to a Fluoro Trans W Membrane (Pall). Immunoblotting was implemented using various types of antibodies.
Moreover, it was also verified that the 24-hour processing using TGF-β (100 μM) or SB431542 (1 μM) suppressed the expression of Sox2 protein levels. (See FIG. 4C.) In the diagram, α-tubulin is the loading control.

[6] = system: Sox4 recruitment to the Sox2 enhancer region; experiment: Chromatin immunoprecipitation with Sox4 antibodies; type: cell-based, human; settings: TGS-01; 24 hours; TGF-β 100 μM or SB431542 1 μM
Procedure: (§3) Chromatin immunoprecipitation was implemented using the method described by Koinuma et al. (Molecular and Cellular Biology, 2009, 29:172-186, 10.1128/MCB, 01038-08). After reverse cross-linking, the DNA was processed using proteinase K, and refined using a PCR purification kit (Qiagen). The DNA was eluted into 30 μL of TE, and used in either PCR or quantitative real-time PCR. The primers used in the PCR are as described below.
To verify that this control is direct, chromatin immunoprecipitation assay was implemented using Sox4 antibodies. It has previously been reported that the enhancer region located in the Sox2 gen 3′ flanking region is important for controlling Sox2 expression. (Chew et al., Molecular and Cellular Biology, 2005, 25:6031-6046; Tomioka et al., Nucleic Acids Research, 2002, 30: 3202-3213.) This region includes the consensus binding motif CATTGTA to Sox4. […]
Here, TGS-01 cells were processed for 24 hours using either TGF-β (100 μM), or SB431542 (1 μM), and the eluted DNA analyzed using quantitative real-time PCR. The measured values were normalized using HPRT first intron quantities. […] Further, to examine the effects of Sox4 knockdown on sox2 expression induction by TGF-β, siRNA was stained, and after for 24 hours, was processed for a further 24 hours using TGF-β (100 μM), and the Sox2 mRNA expression levels measured using real-time PCR. […]

[7] = system: Sox4 mRNA; experiment: Sox4 mRNA expression by quantitative real-time PCR; type: cell-based, human; settings: for Sox4 mRNA expression: TGS-01 and TGS-04, three hours and 24 hours, TGF-β 100 μM or SB431542 1 μM
From the text: as §1

[8] = system: SMAD complexes binding to Sox4 promoters; experiment: Chromatin immunoprecipitation with SMAD2 and SMAD3 antibodies; type: cell-based, human; settings: TGS-01; 1.5 hours; TGF-β 100 μM or SB431542 1 μM
Procedure: as §3
To verify that Sox4 is a direct TGF-β marker, chromatin immunoprecipitation assay was implemented using antibodies to SMAD2 and SMAD3, which are DNA binding signal mediators for the TGF-β signals. Specifically, TGS-01 cells were processed for 1.5 hours using either TGF-β (100 μM), or SB431542 (1 μM), and the eluted DNA was supplied for either real-time PCR or RT-PCR. In real-time PCR, the measured values were normalized using the first introns of hypoxanthine phosphoribosyltransferase (HPRT). […] (See FIG. 6F.)

[9] = system: Nestin, Musashi, GFAP, Tuj1 positive glioma-initiating cells; experiment: Immunostaining of neural precursor and differentiation markers; type: cell-based, human
Procedure: Glioma-initiating cells (GICs) were seeded on glass slides that had been coded using poly-L-ornithine (Sigma) and fibronectin (Sigma), and were then cultured for seven days together with various ligands or inhibitors in serum-free culture. The cells were fixed using 3.7% paraformaldehyde, and then the cell membrane was made permeable using 0.3% Triton […] including PBS, and incubated together with various antibodies.
as §2

[10] = system: Oct-4, NANOG, and LIF expression; experiment: Expression of stem cell markers Oct-4, NANOG, LIF; type: cell-based, human
From the text: as §1
(See FIG. 14.) Further, it has been reported that NANOG and LIF are induced in many cells by stimulating TGF-β. (Xu et al., Cell Stem Cell, 2008, 3: 206; Bruna et al., Cancer Cell, 2007, 11: 147-160.)

[11] = 24 hours after processing, TGF-β 100 μM or SB431542 1 μg (so in the source)
[12] = cells pre-processed with SB431542, 30 days after intracranial transplant

Molecule: NC(=O)c1ccc(-c2nc(-c3ccc4c(c3)OCO4)c(-c3ccccn3)[nH]2)cc1 [SB431542]
sphere formation ability of glioma-initiating cells ([1]; SB431542 1 μM, seven days culture): conspicuously reduced | spherical growth pattern of spheres that had once formed ([1]; SB431542 added to formed spheres): became adhesion cells | sphere formation ability ([1]; TGS-01 over-expressing Sox4 (adenovirus-Sox4 vs adenovirus-LacZ), SB431542 1 μM, seven days): fall in sphere formation ability was alleviated | sphere formation abilities ([1]; glioma-initiating cells over-expressing Sox2, compared to LacZ over-expressing cells): reduced only slightly | expression of Sox2 mRNA [2, 11]: suppressed | expression of Sox2 mRNA ([2]; subsequently for seven days, SB431542 1 μg (so in the source)): low expression level continued | percentage of CD133-positive cells in the glioma spheres ([3]; SB431542 1 μM): reduced | survival period of the mice ([4]; TGS-01 (adenovirus-LacZ) pre-processed 24 hours with SB431542 vs unprocessed control, Kaplan-Meier): significantly longer | neurological symptoms [4, 12]: did not show any neurological symptoms | tumors on pathological examination using HE staining [4, 12]: did not reveal any tumors | extension of survival periods ([4]; glioma-initiating cells over-expressing Sox4, pre-processed with SB431542): did not shown any effects | expression of Sox2 protein levels [5]: suppressed | Sox4 recruitment to the Sox2 enhancer region [6]: clearly reduced | Sox4 mRNA expression [7]: down-regulated | binding of SMAD complexes to Sox4 promoters [8]: clearly controlled | percentages of Nestin-positive cells and GFAP-positive cells ([9]; TGS-01 over-expressing Sox4, SB431542, seven days): no major changes | percentage of GFAP-positive cells ([9]; cells over-expressing Sox2): did not increase | percentage of Nestin-positive cells ([9]; cells over-expressing Sox2): did not fall

Molecule: C[C@@H]1C[C@@H]([C@H](O)CC2CC(=O)NC(=O)C2)C(=O)[C@@H](C)C1 [cycloheximide]
induction of Sox2 expression by TGF-β in the presence of cycloheximide ([2]; TGF-β 100 μM (so in the source) 24 hours, cycloheximide started after 30 minutes): reduced | Sox4 induction by TGF-β in the presence of cycloheximide [7]: not influenced

Molecule: CC1=C2C[C@H]3[C@@H](CC=C4C[C@@H](O)CC[C@@]43C)[C@@H]2CC[C@]12O[C@@H]1C[C@H](C)CN[C@H]1[C@H]2C [cyclopamine]
effects on sphere formation compared with SB431542 ([1]; TGS-01, cyclopamine 2.5, 5, 10 μM vs SB431542 1 μM): smaller than those of SB431542 | effect on sphere formation of the two drugs combined ([1]; TGS-01, cyclopamine combined with SB431542 1 μM): no additional or synergistic effect | sphere formation ability of TGS-01 cells ([1]; cyclopamine 2.5, 5, and 10 μM, seven days): reduced

binding of SMAD complexes to Sox4 promoters [8]: bound directly
Molecule: TGF-β
sphere formation ability ([1]; adding TGF-β): did not greatly influence | expression of Sox2 mRNA [2, 11]: induced; also recorded: observed | induction of Sox2 expression ([2]; three hours after TGF-β stimulation): not observed | CD133-positive ratio ([3]; adding TGF-β (100 μM [sic])): did not greatly influence | LIF expression ([10]; TGS-01 or TGS-04 cells, TGF-β signals): did not induce | expression of Oct-4, NANOG, and LIF ([10]; processing using TGF-β or an inhibitor): not greatly affected | expression of Sox2 protein levels [5]: suppressed | Sox4 recruitment to the Sox2 enhancer region [6]: increased | Sox4 mRNA expression [7]: induced | marker expression ([9]; adding TGF-β (100 μM [sic]), seven days): did not greatly influence

B1: TGF-βRII/Fc: human TGF-β receptor II/Fc chimera (protein)
chain: TIPPHVQKSVNNDMIVTDNNGAVKFPQLCKFCDVRFSTCDNQKSCMSNCSITSICEKPQEVCVAVWRKNDENITLETVCHDPKLPYHDFILEDAASPKCIMKEKKKPGETFFMCSCSSDECNDNIIFSEEYNTSNPD
modifications: left off: a dimerising Fc or GST
notes: human TGF-β receptor II/Fc chimera
efficiency in forming spheres ([1]; human TGF-βRII/Fc chimera 1 μg/mL, IgG1Fc 1 μg/mL as control): low
